Reference: PubChem BioAssay (NCI)
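Five compound concentrations were applied to cells in 96-well plates for 48 hours; endpoints were derived by simple linear interpolation of the resulting dose-response curve. GI50: concentration for 50% inhibition of growth. TGI: total growth inhibition.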

Tests used:
Assay in all cases: inhibition of tumour cell growth, NCI panel, 48 h
[1] = system: SK-MEL-2 melanoma
[2] = system: MOLT-4 leukemia
[3] = system: ACHN renal
[4] = system: DU-145 prostate
[5] = system: MDA-MB-231 breast
[6] = system: KM12 colon
[7] = system: K-562 leukemia
[8] = system: SR leukemia
[9] = system: SNB-19 CNS
[10] = system: RXF 393 renal
[11] = system: HL-60(TB) leukemia
[12] = system: SNB-75 CNS
[13] = system: 786-0 renal
[14] = system: NCI-H522 lung
[15] = system: HCT-116 colon
[16] = system: SW-620 colon
[17] = system: MALME-3M melanoma
[18] = system: HCC-2998 colon
[19] = system: LOX IMVI melanoma
[20] = system: UACC-257 melanoma
[21] = system: CCRF-CEM leukemia
[22] = system: SF-295 CNS
[23] = system: HT29 colon
[24] = system: RPMI-8226 leukemia
[25] = system: SK-MEL-28 melanoma
[26] = system: OVCAR-5 ovarian
[27] = system: UO-31 renal
[28] = system: A549 NSCLC
[29] = system: UACC-62 melanoma
[30] = system: PC-3 prostate
[31] = system: HS 578T breast
[32] = system: BT-549 breast
[33] = system: M14 melanoma
[34] = system: T-47D breast
[35] = system: IGROV1 ovarian
[36] = system: SN12C renal
[37] = system: COLO 205 colon
[38] = system: HCT-15 colon
[39] = system: OVCAR-4 ovarian
[40] = system: U251 CNS
[41] = system: SF-539 CNS
[42] = system: OVCAR-3 ovarian
[43] = system: TK-10 renal
[44] = system: HOP-62 NSCLC
[45] = system: A498 renal
[46] = system: SF-268 CNS
[47] = system: NCI-H226 lung
[48] = system: NCI/ADR-RES ovarian
[49] = system: OVCAR-8 ovarian
[50] = system: SK-MEL-5 melanoma
[51] = system: HOP-92 NSCLC
[52] = system: MCF7 breast
[53] = system: SK-OV-3 ovarian
[54] = system: NCI-H23 lung
[55] = system: CAKI-1 renal
[56] = system: NCI-H460 lung
[57] = system: EKVX NSCLC
[58] = system: MDA-MB-435

## CN(C)CCN1CCC(Cc2ccccc2)CC1
[1]
  GI50: > 80 µM
  TGI: > 80 µM
[2]
  GI50: > 80 µM
  TGI: > 80 µM
[3]
  GI50: > 80 µM
  TGI: > 80 µM
[4]
  GI50: > 80 µM
  TGI: > 80 µM
[5]
  GI50: > 80 µM
  TGI: > 80 µM
[6]
  GI50: > 80 µM
  TGI: > 80 µM
[7]
  GI50: 15.4 µM
  TGI: > 80 µM
[8]
  GI50: 67.3 µM
  TGI: > 80 µM
[9]
  GI50: > 80 µM
  TGI: > 80 µM
[10]
  GI50: > 80 µM
  TGI: > 80 µM
[11]
  GI50: 26.8 µM
  TGI: > 80 µM
[12]
  GI50: > 80 µM
  TGI: > 80 µM
[13]
  GI50: > 80 µM
  TGI: > 80 µM
[14]
  GI50: > 80 µM
  TGI: > 80 µM
[15]
  GI50: > 80 µM
  TGI: > 80 µM
[16]
  GI50: > 80 µM
  TGI: > 80 µM
[17]
  GI50: > 80 µM
  TGI: > 80 µM
[18]
  GI50: > 80 µM
  TGI: > 80 µM
[19]
  GI50: > 80 µM
  TGI: > 80 µM
[20]
  GI50: > 80 µM
  TGI: > 80 µM
[21]
  GI50: > 80 µM
  TGI: > 80 µM
[22]
  GI50: > 80 µM
  TGI: > 80 µM
[23]
  GI50: > 80 µM
  TGI: > 80 µM
[24]
  GI50: > 80 µM
  TGI: > 80 µM
[25]
  GI50: > 80 µM
  TGI: > 80 µM
[26]
  GI50: > 80 µM
  TGI: > 80 µM
[27]
  GI50: > 80 µM
  TGI: > 80 µM
[28]
  GI50: > 80 µM
  TGI: > 80 µM
[29]
  GI50: > 80 µM
  TGI: > 80 µM
[30]
  GI50: > 80 µM
  TGI: > 80 µM
[31]
  GI50: 44.1 µM
  TGI: > 80 µM
[32]
  GI50: > 80 µM
  TGI: > 80 µM
[33]
  GI50: > 80 µM
  TGI: > 80 µM
[34]
  GI50: > 80 µM
  TGI: > 80 µM
[35]
  GI50: > 80 µM
  TGI: > 80 µM
[36]
  GI50: > 80 µM
  TGI: > 80 µM
[37]
  GI50: > 80 µM
  TGI: > 80 µM
[38]
  GI50: > 80 µM
  TGI: > 80 µM
[39]
  GI50: > 80 µM
  TGI: > 80 µM
[40]
  GI50: > 80 µM
  TGI: > 80 µM
[41]
  GI50: > 80 µM
  TGI: > 80 µM
[42]
  GI50: > 80 µM
  TGI: > 80 µM
[43]
  GI50: > 80 µM
  TGI: > 80 µM
[44]
  GI50: > 80 µM
  TGI: > 80 µM
[45]
  GI50: 47.2 µM
  TGI: > 80 µM
[46]
  GI50: > 80 µM
  TGI: > 80 µM
[47]
  GI50: > 80 µM
  TGI: > 80 µM
[48]
  GI50: > 80 µM
  TGI: > 80 µM
[49]
  GI50: > 80 µM
  TGI: > 80 µM
[50]
  GI50: 43.2 µM
  TGI: > 80 µM
[51]
  GI50: 41.4 µM
  TGI: > 80 µM
[52]
  GI50: > 80 µM
  TGI: > 80 µM
[53]
  GI50: > 80 µM
  TGI: > 80 µM
[54]
  GI50: > 80 µM
  TGI: > 80 µM
[55]
  GI50: > 80 µM
  TGI: > 80 µM
[56]
  GI50: > 80 µM
  TGI: > 80 µM
[57]
  GI50: > 80 µM
  TGI: > 80 µM
[58]
  GI50: > 80 µM
  TGI: > 80 µM

## COc1cc2c(cc1OCCCN1CCN(CCCOc3cc4c(cc3OC)C(=O)N3CC(F)(F)C[C@H]3C=N4)CC1)N=C[C@@H]1CC(F)(F)CN1C2=O
[1]
  GI50: 10.3 µM
  TGI: 23.1 µM
[2]
  GI50: 2.02 µM
  TGI: 8.37 µM
[3]
  GI50: 5.64 µM
  TGI: 19.7 µM
[4]
  GI50: 3.63 µM
  TGI: 13.3 µM
[5]
  GI50: 4.29 µM
  TGI: 17.6 µM
[6]
  GI50: 4.1 µM
  TGI: 17.5 µM
[7]
  GI50: 1.74 µM
  TGI: > 100 µM
[8]
  GI50: 0.882 µM
  TGI: 11.4 µM
[9]
  GI50: 4.08 µM
  TGI: 17.5 µM
[10]
  GI50: 2.14 µM
  TGI: 4.52 µM
[11]
  GI50: 1.18 µM
  TGI: 5.06 µM
[12]
  GI50: 5.52 µM
  TGI: 21.1 µM
[13]
  GI50: 3.17 µM
  TGI: 10.8 µM
[14]
  GI50: 1.14 µM
  TGI: 3.86 µM
[15]
  GI50: 3.59 µM
  TGI: 22.4 µM
[16]
  GI50: 2.61 µM
  TGI: 12.5 µM
[17]
  GI50: 2.8 µM
  TGI: 6.34 µM
[18]
  GI50: 5.4 µM
  TGI: 19.4 µM
[19]
  GI50: 1.89 µM
  TGI: 4.83 µM
[20]
  GI50: 15.3 µM
  TGI: 31.6 µM
[21]
  GI50: 0.979 µM
  TGI: 8.51 µM
[23]
  GI50: 3.61 µM
  TGI: > 100 µM
[24]
  GI50: 2.2 µM
  TGI: 7.73 µM
[25]
  GI50: 4.28 µM
  TGI: 15.2 µM
[26]
  GI50: 3.83 µM
  TGI: 11.4 µM
[27]
  GI50: 11.4 µM
  TGI: 25.7 µM
[28]
  GI50: 7.32 µM
  TGI: 43 µM
[29]
  GI50: 3.05 µM
  TGI: 13.2 µM
[30]
  GI50: 3.06 µM
  TGI: 9.74 µM
[31]
  GI50: 2.32 µM
  TGI: 9.55 µM
[32]
  GI50: 1.95 µM
  TGI: 5.36 µM
[33]
  GI50: 3.25 µM
  TGI: 16.5 µM
[34]
  GI50: 3.25 µM
  TGI: 36.9 µM
[35]
  GI50: 1.92 µM
  TGI: 5.13 µM
[36]
  GI50: 4.05 µM
  TGI: 19.5 µM
[37]
  GI50: 3.09 µM
  TGI: 10.2 µM
[38]
  GI50: 16.2 µM
  TGI: 36.7 µM
[39]
  GI50: 12.7 µM
  TGI: 33.7 µM
[40]
  GI50: 3.36 µM
  TGI: 14.3 µM
[41]
  GI50: 3.05 µM
  TGI: 9.15 µM
[42]
  GI50: 3.55 µM
  TGI: 10.6 µM
[43]
  GI50: 4.38 µM
  TGI: 12.9 µM
[44]
  GI50: 3.17 µM
  TGI: 6.07 µM
[45]
  GI50: 2.43 µM
  TGI: 5.95 µM
[46]
  GI50: 3.57 µM
  TGI: 14.5 µM
[47]
  GI50: 14 µM
  TGI: 39.8 µM
[48]
  GI50: 25.2 µM
  TGI: 72.9 µM
[49]
  GI50: 6.3 µM
  TGI: 26.7 µM
[50]
  GI50: 1.86 µM
  TGI: 4.16 µM
[51]
  GI50: 6.14 µM
  TGI: 76.3 µM
[52]
  GI50: 2.09 µM
  TGI: 20.2 µM
[53]
  GI50: 8.64 µM
  TGI: > 100 µM
[54]
  GI50: 4.55 µM
  TGI: 16.8 µM
[55]
  GI50: 3.31 µM
  TGI: 13.5 µM
[56]
  GI50: 2.6 µM
  TGI: 15.6 µM
[57]
  GI50: 29.1 µM
  TGI: > 100 µM
[58]
  GI50: 2.94 µM
  TGI: 11.1 µM
